Test results published in patent US10702506B2, “Small molecule inhibitors of pendrin ion exchange and pharmaceutical compositions” (THE REGENTS OF THE UNIVERSITY OF CALIFORNIA, priority 2016, dated 2020).

How the values were obtained:
[1] = Pharmacokinetics in mice, LC/MS of plasma and urine; format: in vivo; details: 10 mg/kg bolus ip
Protocol: Pharmacokinetics measurements were done to guide studies of diuretic efficacy. Animal experiments were approved by UCSF Institutional Animal Care and Use Committee. Female CD1 mice (8-10 weeks) were injected with 10 mg/kg PDSinh-C01 (in saline containing 5% DMSO and 10% Kolliphor HS) ip and blood was collected by orbital puncture at 15, 30, 60, 150 and 240 min, and centrifuged at 5000 rpm for 15 min to separate plasma. Urine was collected in metabolic cages. An LC/MS method was developed to measure PDSinh-C01 concentrations in mouse blood and urine. Plasma and urine samples (60 μL) were mixed with 300-μL acetonitrile and centrifuged at 13000 rpm for 20 min, and 90 μL of the supernatant was taken for liquid chromatography/mass spectrometry (LC/MS; Waters 2695 and Micromass ZQ). […] Sodium and potassium concentrations in 3-h collected urine samples were measured by flame photometry (PFP7 Clinical Flame Photometer, Bibby Scientific Ltd, Stone. Staffs, UK). […] Blood gas was analyzed by iSTAT1 with CG4+ cartridges (Abbott Laboratories, Abbott Park, IL, USA). Urine pH was measured on freshly collected urine samples using an AB 15 pH Meter (Fisher Scientific, Pittsburgh, Pa., USA). Experiments with two groups were analyzed with Student's t-test, and experiments with 3 or more groups were analyzed using one-way analysis of variance and post-hoc Newman-Keuls multiple comparisons test. […]

[2] = system: CaCC; experiment: Short-circuit current (Isc) analysis in IL-13-treated HBE cells, ATP response; format: cell-based, human; details: 25 μM, 30 min pre-treatment
Protocol: Further experiments were done with PDSinh-A01 because of its greater inhibition potency for Cl^−/HCO3^− exchange than PDSinh-C01. To investigate PDSinh-A01 specificity, the major ion transport pathways in HBE cells were studied by short-circuit current (Isc) analysis. Cells were treated with IL-13 to increase Ca^2+-activated Cl^− conductance (CaCC) activity. For Isc measurements, cells were sequentially treated with amiloride to inhibit the epithelial sodium channel (ENaC), forskolin to activate the cystic fibrosis transmembrane conductance regulator (CFTR), CFTRinh-172 to inhibit CFTR, and ATP to activate CaCC. In the absence of PDSinh-A01, ion channel modulators produced the anticipated changes in Isc (FIG. 4A).
IL-13-treated HBE cells were cultured on Snapwell clear permeable supports (12 mm diameter, 0.4 μm polyester membrane, Costar, Corning, Corning, N.Y.). Short-circuit current was measured using symmetrical HCO3^−-buffered solutions (in mM: 120 NaCl, 5 KCl, 1 MgCl2, 1 CaCl2, 5 Hepes, 25 NaHCO3; pH 7.4) as described, with ion transport modulators added to both apical and basolateral bathing solutions. Cells were equilibrated with 95% O2/5% CO2 and maintained at 37° C. during data acquisition. Statistical analysis was by Student's t-test.

[3] = system: HBE and CFBE cell cultures; experiment: ASL pH by BCECF-dextran ratio imaging in HBE and CFBE cultures; format: cell-based, human; details: 25 μM, 4 hours
Protocol: To investigate the possible involvement of pendrin in ASL pH regulation, fluorescence ratio imaging was done of the ASL in HBE and CFBE cultures after staining with BCECF-dextran. In the absence of IL-13-treatment, ASL pH was ˜0.3 pH units more acidic in CFBE than HBE cultures (FIG. 5C; pH ˜7.4 vs. ˜7.1), in agreement with prior studies showing relative ASL acidity in CF.
ASL pH was measured using the pH-sensitive fluorophore BCECF conjugated to 10 kDa dextran (Invitrogen, Carlsbad, Calif.) as described, which was added 4-6 h prior to measurement (20 μl of 0.5 mg/ml in PBS). Cell inserts were incubated in HCO3^−-containing buffer (5% CO2 environment) and the ASL was imaged using a SMZ stereoscopic microscope (Nikon, Melville, N.Y.) equipped with a C9100 EM-CCD, Exfo XCite light source and BCECF filters (440/10X, 490/20X, 535/25M, Chroma, Bellows Falls, Vt.). In some experiments ASL pH was measured after PDSinh-A01 treatment, as described for ASL depth measurements. To relate BCECF fluorescence to pH, a calibration curve over the quasi-linear range of BCECF sensitivity was generated.

## Cc1n[nH]c(-c2cc(S(=O)(=O)NC3CCCc4ccccc43)c(C)s2)c1C (centres unmarked) [PDSinh-C01]
[1]
  concentration in plasma: predicted therapeutic concentrations for several hours
  concentration in urine: predicted therapeutic concentrations for several hours

## Cn1nc(COc2cccc(F)c2)c2c1CCN(C(=O)Nc1ccc(Cl)cc1)C2 [PDSinh-A01]
[2]
  effect on CaCC activity (Isc response): did not affect the activity
[3]; IL-13-treated
  effect on ASL pH, IL-13-treated cultures: did not alter ASL pH
[3]; no IL-13
  effect on ASL pH, basal conditions: did not alter ASL pH
